Results: ChEMBL document CHEMBL6074631, “Design, synthesis, and evaluation of pyranochromene derivatives as membrane targeting antibacterials against Gram-positive bacteria” (Bioorg Med Chem Lett, 2024)
Converted amounts (≈) assume the structure as drawn. The source made the active and inactive calls. The calls are words filed in the database; no cut-off is given here.

Assays:
Escherichia coli = assay: Antibacterial activity against Escherichia coli ATCC25922 assessed as reduction in bacterial growth by broth microdilution assay; format: functional
Cell membrane [1] = assay: Induction of cell membrane disruption in Staphylococcus aureus ATCC43300 assessed as fold increase in protein leakage at 16 ug/ml; format: subcellular; settings: dose 16.0 µg/ml
Staphylococcus aureus [2] = assay: Antibacterial activity against Staphylococcus aureus ATCC25923 assessed as reduction in bacterial growth by broth microdilution assay; format: functional
Cell membrane [3] = assay: Induction of cell membrane permeabilization in Staphylococcus aureus ATCC43300 assessed as increase in fluorescence intensity by propidium iodide dye-based fluorescence assay; format: subcellular; settings: dose 2-16 µg/ml
Staphylococcus aureus [4] = assay: Bactericidal activity against Staphylococcus aureus ATCC43300 measured upto 12 hrs by time kill assay; format: functional, organism-based; settings: dose 2-16 µg/ml
Cell membrane [5] = assay: Induction of cytoplasmic membrane depolarization in Staphylococcus aureus ATCC43300 assessed as fold increase in fluorescence signal at 16 ug/ml measured at 20 mins DiSC3(5) dye-based fluorescence assay; format: subcellular; settings: dose 16.0 µg/ml
Cell membrane [6] = assay: Induction of cell membrane disruption in Staphylococcus aureus ATCC43300 assessed as increase in DNA leakage; format: subcellular; settings: dose 2-16 µg/ml
Cell membrane [7] = assay: Disruption of cell membrane integrity in Staphylococcus aureus ATCC43300 assessed as red fluorescence by DAPI staining based fluorescence assay; format: subcellular
Staphylococcus aureus [8] = assay: Bactericidal activity against Staphylococcus aureus ATCC43300 at 2 to 16 ug/ml by time kill assay; format: functional, organism-based; settings: dose 2-16 µg/ml, time <= 12.0 hrs
Cell membrane [9] = assay: Induction of cell membrane disruption in Staphylococcus aureus ATCC43300 assessed as fold increase in DNA leakage at 16 ug/ml; format: subcellular; settings: dose 16.0 µg/ml
Staphylococcus aureus [10] = assay: Bactericidal activity against Staphylococcus aureus ATCC43300 assessed as eradication of bacterial cell at 16 ug/ml measured within 8 hrs by time kill assay relative to control; format: functional; settings: dose 16 µg/ml
Acinetobacter baumannii = assay: Antibacterial activity against Acinetobacter baumannii ATCC19606 assessed as reduction in bacterial growth by broth microdilution assay; format: functional
Enterococcus faecalis = assay: Antibacterial activity against penicillin-susceptible Enterococcus faecalis ATCC29212 assessed as reduction in bacterial growth by broth microdilution assay; format: functional
Staphylococcus aureus [11] = assay: Bactericidal activity against Staphylococcus aureus ATCC43300 assessed as reduction in bacterial count at 16 ug/ml measured within 4 hrs by time kill assay relative to control; format: functional; parameters: scale not given: the % may be the effect or the level left; settings: dose 16 µg/ml
Cell membrane [12] = assay: Induction of cell membrane disruption in Staphylococcus aureus ATCC43300 assessed as increase in protein leakage; format: subcellular; settings: dose 2-16 µg/ml
Staphylococcus aureus [13] = assay: Antibacterial activity against […] Staphylococcus aureus ATCC43300 assessed as reduction in bacterial growth by broth microdilution assay; format: functional
Cell membrane [14] = assay: Induction of cytoplasmic membrane depolarization in Staphylococcus aureus ATCC43300 assessed as fold increase in fluorescence signal measured upto 20 mins DiSC3(5) dye-based fluorescence assay; format: subcellular; settings: dose 2-16 µg/ml
Pseudomonas aeruginosa = assay: Antibacterial activity against penicillin-susceptible Pseudomonas aeruginosa ATCC27853 assessed as reduction in bacterial growth by broth microdilution assay; format: functional
Staphylococcus aureus [15] = assay: Antibacterial activity against Staphylococcus aureus ATCC31007 assessed as reduction in bacterial growth by broth microdilution assay; format: functional
Staphylococcus aureus [16] = assay: Bactericidal activity against Staphylococcus aureus ATCC43300 assessed as log reduction in CFU at 16 ug/ml by time kill assay; format: functional; settings: dose 16 µg/ml
[17] = Hemolytic activity in RBC (unknown origin) assessed as hemolysis; format: toxicity, cell-based; settings: for HC90: rbc; for HC50: red blood cells
Staphylococcus aureus [18] = assay: Antibacterial activity against Staphylococcus aureus ATCC43300 measured after 20 passages; format: functional, organism-based
Cell membrane [19] = assay: Disruption of cell membrane integrity in Staphylococcus aureus ATCC43300 assessed as blue fluorescence by DAPI staining based fluorescence assay; format: subcellular
Klebsiella pneumoniae = assay: Antibacterial activity against erythromycin-susceptible Klebsiella pneumoniae ATCC10031 assessed as reduction in bacterial growth by broth microdilution assay; format: functional
Bacillus subtilis = assay: Antibacterial activity against […] Bacillus subtilis ATCC9372 assessed as reduction in bacterial growth by broth microdilution assay; format: functional
Cell membrane [20] = assay: Induction of cell membrane permeabilization in Staphylococcus aureus ATCC43300 assessed as fold increase in fluorescence intensity at 16 ug/ml by propidium iodide dye-based fluorescence assay; format: subcellular; settings: dose 16.0 µg/ml
[21] = tested on: Staphylococcus epidermidis; assay: Antibacterial activity against vancomycin-susceptible Staphylococcus epidermidis ATCC12228 assessed as reduction in bacterial growth by broth microdilution assay; format: functional
Staphylococcus aureus [22] = assay: Drug resistance, ratio of MIC for Staphylococcus aureus ATCC43300 after 20 passages exposure to MIC for Staphylococcus aureus ATCC43300 after first exposure; format: functional
Staphylococcus aureus [23] = assay: Drug resistance, ratio of MIC for Staphylococcus aureus ATCC43300 after 18 passages exposure to MIC for Staphylococcus aureus ATCC43300 after first exposure; format: functional

SMILES	MIC (Escherichia coli)	MIC (Staphylococcus aureus [2])	MIC (Acinetobacter baumannii)	MIC (Enterococcus faecalis)	MIC (Staphylococcus aureus [13])	MIC (Pseudomonas aeruginosa)	MIC (Staphylococcus aureus [15])	MIC (Klebsiella pneumoniae)	MIC (Bacillus subtilis)	MIC [21]	further results
CC(=O)c1c(OCC(=O)NCCN(C)C)c2c(c3c1OC(C)(CCC=C(C)C)C=C3)OC(C)(CCC=C(C)C)C=C2 (centres undefined)	> 128 µg/mL	4 µg/mL (≈ 7.08 µM)	128 µg/mL (≈ 227 µM)	1 µg/mL (≈ 1.77 µM)	2 µg/mL (≈ 3.54 µM)	> 128 µg/mL	2 µg/mL (≈ 3.54 µM)	> 128 µg/mL	2 µg/mL (≈ 3.54 µM)	1 µg/mL (≈ 1.77 µM)	fold change (FC) (Cell membrane [1]): 6.3; Activity (Cell membrane [3]): Dose-dependent-effect; Activity (Staphylococcus aureus [4]): Dose-dependent-effect; fold change (FC) (Cell membrane [5]): 4.7; Activity (Cell membrane [6]): Dose-dependent-effect; Activity (Cell membrane [7]): Active; Activity (Staphylococcus aureus [8]): Time-dependent-effect; fold change (FC) (Cell membrane [9]): 6.7; Activity (Staphylococcus aureus [10]): 100%; Activity (Staphylococcus aureus [11]): 99.9%; Activity (Cell membrane [12]): Dose-dependent-effect; Activity (Cell membrane [14]): Dose-dependent-effect; log(activity) (Staphylococcus aureus [16]): 8.78; HC90 [17]: 205.8 µg/mL; HC50 [17]: 112 µg/mL; Activity (Staphylococcus aureus [18]): inactive; Activity (Cell membrane [19]): Active; fold change (FC) (Cell membrane [20]): 2.3; fold change (FC) (Staphylococcus aureus [22]): 4
CC(=O)c1c(OCC(=O)NCCCN2CCN(C)CC2)c2c(c3c1OC(C)(CCC=C(C)C)C=C3)OC(C)(CCC=C(C)C)C=C2 (centres undefined)	> 128 µg/mL	2 µg/mL (≈ 3.16 µM)	128 µg/mL (≈ 202 µM)	0.5 µg/mL (≈ 0.789 µM)	4 µg/mL (≈ 6.31 µM)	> 128 µg/mL	2 µg/mL (≈ 3.16 µM)	> 128 µg/mL	2 µg/mL (≈ 3.16 µM)	1 µg/mL (≈ 1.58 µM)	HC90 [17]: 137.3 µg/mL; HC50 [17]: 46 µg/mL
CCn1cc(C(=O)O)c(=O)c2cc(F)c(N3CCNCC3)cc21 [NORFLOXACIN]	–	–	–	–	–	–	–	–	–	–	fold change (FC) (Staphylococcus aureus [23]): 256
CCNCCCOc1ccc(/C=C/C(=O)c2c(OC)c3c(c4c2OC(C)(CCC=C(C)C)C=C4)OC(C)(CCC=C(C)C)C=C3)cc1 (centres undefined)	> 128 µg/mL	> 128 µg/mL	128 µg/mL (≈ 200 µM)	> 128 µg/mL	> 128 µg/mL	128 µg/mL (≈ 200 µM)	> 128 µg/mL	> 128 µg/mL	128 µg/mL (≈ 200 µM)	> 128 µg/mL	–
CCN(CC)CCCNCCCOc1ccc(/C=C/C(=O)c2c(OC)c3c(c4c2OC(C)(CCC=C(C)C)C=C4)OC(C)(CCC=C(C)C)C=C3)cc1 (centres undefined)	> 128 µg/mL	16 µg/mL (≈ 22.1 µM)	> 128 µg/mL	32 µg/mL (≈ 44.1 µM)	16 µg/mL (≈ 22.1 µM)	> 128 µg/mL	32 µg/mL (≈ 44.1 µM)	> 128 µg/mL	8 µg/mL (≈ 11 µM)	4 µg/mL (≈ 5.52 µM)	–
COc1c2c(c3c(c1C(=O)/C=C/c1ccc(OCCC[N+](C)(C)CCCN)cc1)OC(C)(CCC=C(C)C)C=C3)OC(C)(CCC=C(C)C)C=C2 (centres undefined)	> 128 µg/mL	16 µg/mL	> 128 µg/mL	> 128 µg/mL	32 µg/mL	> 128 µg/mL	8 µg/mL	> 128 µg/mL	8 µg/mL	4 µg/mL	–
CC(=O)c1c(OCC(=O)N(C)CCCN(C)C)c2c(c3c1OC(C)(CCC=C(C)C)C=C3)OC(C)(CCC=C(C)C)C=C2 (centres undefined)	> 128 µg/mL	4 µg/mL (≈ 6.75 µM)	128 µg/mL (≈ 216 µM)	2 µg/mL (≈ 3.37 µM)	4 µg/mL (≈ 6.75 µM)	128 µg/mL (≈ 216 µM)	4 µg/mL (≈ 6.75 µM)	> 128 µg/mL	2 µg/mL (≈ 3.37 µM)	2 µg/mL (≈ 3.37 µM)	–
COc1c2c(c3c(c1C(=O)/C=C/c1ccc(OCCCN(CCCN(C)C)CCCN(C)C)cc1)OC(C)(CCC=C(C)C)C=C3)OC(C)(CCC=C(C)C)C=C2 (centres undefined)	> 128 µg/mL	8 µg/mL (≈ 10.2 µM)	> 128 µg/mL	8 µg/mL (≈ 10.2 µM)	8 µg/mL (≈ 10.2 µM)	> 128 µg/mL	8 µg/mL (≈ 10.2 µM)	> 128 µg/mL	8 µg/mL (≈ 10.2 µM)	2 µg/mL (≈ 2.56 µM)	–
COc1c2c(c3c(c1C(=O)/C=C/c1ccc(OCCC[N+](C)(C)CCCN(C)C)cc1)OC(C)(CCC=C(C)C)C=C3)OC(C)(CCC=C(C)C)C=C2 (centres undefined)	> 128 µg/mL	4 µg/mL	32 µg/mL	16 µg/mL	16 µg/mL	> 128 µg/mL	32 µg/mL	> 128 µg/mL	4 µg/mL	2 µg/mL	–
CC[C@H](C)[C@H](NC(=O)CN)C(=O)NCC(=O)N[C@@H](C)C(=O)N[C@H](C(=O)N[C@@H](CC(C)C)C(=O)N[C@@H](CCCCN)C(=O)N[C@H](C(=O)N[C@@H](CC(C)C)C(=O)N[C@H](C(=O)N[C@H](C(=O)NCC(=O)N[C@@H](CC(C)C)C(=O)N1CCC[C@H]1C(=O)N[C@@H](C)C(=O)N[C@@H](CC(C)C)C(=O)N[C@H](C(=O)N[C@@H](CO)C(=O)N[C@@H](Cc1c[nH]c2ccccc12)C(=O)N[C@H](C(=O)N[C@@H](CCCCN)C(=O)N[C@@H](CCCNC(=N)N)C(=O)N[C@@H](CCCCN)C(=O)N[C@@H](CCCNC(=N)N)C(=O)N[C@@H](CCC(N)=O)C(=O)N[C@@H](CCC(N)=O)C(N)=O)[C@@H](C)CC)[C@@H](C)CC)[C@@H](C)O)[C@@H](C)O)C(C)C)C(C)C	–	–	–	–	–	–	–	–	–	–	Activity (Cell membrane [7]): Active; Activity (Cell membrane [19]): Active
